Like-named read-outs stand apart in the source and are kept apart here.
Columns and labels:
[1] = system: MYB mRNA; assay: RT-qPCR splicing assay, MYB mRNA canonical (CJ) and alternative (AJ) junction; type: cell-based, human; conditions: Homo sapiens; for AC50: MYB alternative junction mRNA, read-out: MYB AJ (increase in AJ mRNA, AC50)
Method in brief: (§1)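 Canonical and alternative-exon junction isoforms were quantified by RT-qPCR in cell lysates, with ΔCt against a housekeeper (GAPDH/GUSB/PPIA), then ΔΔCt vs DMSO, converted to 2^(−ΔΔCt) and percent response. K562 or A673 cells were exposed for 24 h to 11 concentrations (3-fold, top final 10 uM).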

[2] = system: Target C; assay: RT-qPCR canonical junction panel assay, Target C mRNA; type: cell-based; conditions: Table 4, read-out: Target C IC50 (decrease in CJ mRNA levels)
Method in brief: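 IC50 is the concentration giving 50% CJ decrease, from a 4-parameter logistic fit of percent response; response derived from ΔΔCt against housekeeper and DMSO over a fixed ΔCt window, with canonical exon-junction qPCR in compound-treated K562 or A673 cells.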

[3] = system: K562 cells; assay: Cell Titer Glo 2.0 cell viability (toxicity) assay, K562; conditions: 500 cells/well, 72 hours
[4] = system: SMN2 mRNA; assay: RT-qPCR splicing assay, SMN2 mRNA; type: cell-based, human; conditions: Homo sapiens, canonical junction qPCR panel, Table 4; read-out: SMN2 IC50 (decrease in CJ mRNA levels)
Method in brief: as §1

[5] = system: HTT mRNA; assay: RT-qPCR splicing assay, HTT mRNA canonical (CJ) and alternative (AJ) junction; type: cell-based, human; conditions: Homo sapiens; for AC50: HTT alternative junction mRNA, read-out: HTT AJ (increase in AJ mRNA, AC50)
Method in brief: as §1

[6] = MYB canonical junction mRNA, RT-qPCR, read-out: MYB CJ (decrease in CJ mRNA levels, IC50)
[7] = canonical junction qPCR panel, Table 4, read-out: MYB IC50 (decrease in CJ mRNA levels)
[8] = HTT canonical junction mRNA, RT-qPCR, read-out: HTT CJ (decrease in CJ mRNA levels, IC50)
[9] = canonical junction qPCR panel, Table 4, read-out: HTT IC50 (decrease in CJ mRNA levels)

SMILES | IC50 [1, 6] | IC50 [1, 7] | IC50 [2] | IC50 [4] | IC50 [5, 8] | IC50 [5, 9] | AC50 ([1]; RT-qPCR) | Effect of Exemplary Compounds on Cell Viability, K562 [3] | AC50 ([5]; RT-qPCR)
Cn1cc2cc(-c3ccc4nc(N5CC[C@H](NC6CC(F)(F)C6)C5)ccc4n3)c(O)cc2n1 [Compound 384] | 100 to 1000 nM | 100 to 1000 nM | > 10000 nM | < 100 nM | 1000 to 10000 nM | 1000 to 10000 nM | 100 to 1000 nM | D (D represents greater than 10 μM in K562 cells) | 1000 to 10000 nM
Cn1cc2cc(-c3ccc4nc(N5CC[C@@H](NC6CC(F)(F)C6)C5)ccc4n3)c(O)cc2n1 [Compound 385] | 100 to 1000 nM | 100 to 1000 nM | 100 to 1000 nM | < 100 nM | < 100 nM | < 100 nM | 100 to 1000 nM | D (D represents greater than 10 μM in K562 cells) | 100 to 1000 nM
CC(C)NC1CCN(c2ccc3nc(-c4cc5cn(C)nc5c(F)c4O)ccc3n2)C1 (stereo not drawn) [Compound 388, 7-fluoro-5-{6-[3-(isopropylamino)pyrrolidin-1-yl]-1,5-naphthyridin-2-yl}-2-methylindazol-6-ol] | < 100 nM | < 100 nM | < 100 nM | < 100 nM | < 100 nM | < 100 nM | < 100 nM | A (A represents <100 nM) | < 100 nM
CNC1CCN(c2ccc3nc(-c4cc(F)c5nc(C)cn5c4)ncc3n2)C1 (stereo not drawn) [Compound 393, 1-(2-{8-fluoro-2-methylimidazo[1,2-a]pyridin-6-yl}pyrido[3,2-d]pyrimidin-6-yl)-N-methylpyrrolidin-3-amine] | < 100 nM | < 100 nM | 100 to 1000 nM | < 100 nM | 100 to 1000 nM | 100 to 1000 nM | < 100 nM | B (B represents 100-1000 nM) | 100 to 1000 nM

Now from value to molecule, other results behind:

IC50 [1, 6] | IC50 [1, 7] | IC50 [2] | IC50 [4] | IC50 [5, 8] | IC50 [5, 9] | SMILES | AC50 ([1]; RT-qPCR) | Effect of Exemplary Compounds on Cell Viability, K562 [3] | AC50 ([5]; RT-qPCR)
< 100 nM | < 100 nM | 1000 to 10000 nM | < 100 nM | 100 to 1000 nM | 100 to 1000 nM | CNC1CCN(c2ccc3nc(-c4cc(C#N)c5nc(C)cn5c4)ncc3n2)C1 (stereo not drawn) [Compound 382, 2-methyl-6-{6-[3-(methylamino)pyrrolidin-1-yl]pyrido[3,2-d]pyrimidin-2-yl}imidazo[1,2-a]pyridine-8-carbonitrile] | < 100 nM | A (A represents <100 nM) | 100 to 1000 nM
< 100 nM | < 100 nM | < 100 nM | < 100 nM | < 100 nM | < 100 nM | Cn1cc2cc(-c3ccc4nc(N5CCC(NCC6CC6)C5)ccc4n3)c(O)c(F)c2n1 (stereo not drawn) [Compound 387, 5-(6-{3-[(cyclopropylmethyl)amino]pyrrolidin-1-yl}-1,5-naphthyridin-2-yl)-7-fluoro-2-methylindazol-6-ol] | < 100 nM | A (A represents <100 nM) | < 100 nM
< 100 nM | < 100 nM | 100 to 1000 nM | < 100 nM | < 100 nM | < 100 nM | Cc1nc2cc(O)c(-c3ccc4nc(N5CCC(NCC6CC6)C5)ccc4n3)cc2o1 (stereo not drawn) [Compound 389, 6-(6-{3-[(cyclopropylmethyl)amino]pyrrolidin-1-yl}-1,5-naphthyridin-2-yl)-2-methyl-1,3-benzoxazol-5-ol] | < 100 nM | B (B represents 100-1000 nM) | 100 to 1000 nM
< 100 nM | < 100 nM | < 100 nM | < 100 nM | < 100 nM | < 100 nM | Cc1nc2c(C)c(O)c(-c3ccc4nc(N5CCC(NCC6CC6)C5)ccc4n3)cc2o1 (stereo not drawn) [Compound 390, 6-(6-{3-[(cyclopropylmethyl)amino]pyrrolidin-1-yl}-1,5-naphthyridin-2-yl)-2,4-dimethyl-1,3-benzoxazol-5-ol] | < 100 nM | A (A represents <100 nM) | < 100 nM

Source: patent publication US20250092065A1, “2-(INDAZOL-5-YL)-6-(PIPERIDIN-4-YL)-1,7-NAPHTHYRIDINE DERIVATIVES AND RELATED COMPOUNDS AS MODULATORS FOR SPLICING NUCLEIC ACIDS AND FOR THE TREATMENT OF PROLIFERATIVE DISEASES” (REMIX THERAPEUTICS INC., priority 2022, published 2025)
